Converted amounts (≈) assume the structure as drawn. Read-outs that look alike come from different tables or passages of the source.
How the values were obtained:
[1] = test system: E. faecium clinical isolate 55A6 (vancomycin and daptomycin resistant); conditions: E. faecium isolate 55a6
[2] = test system: E. faecium 3303; experiment: microbe, parasite or virus in culture; assay type: cell-based, Enterococcus faecium; conditions: E. faecium 3303; for Max. fold change in MIC: decrease
From the text: In therapeutic applications, synergy between active ingredients occurs when an observed combined therapeutic effect is greater than the sum of therapeutic effects of individual active ingredients, or a new therapeutic effect is produced that the active ingredients could not produce alone. […] In this context, the enhancement of therapeutic effect may take the form of increased efficacy or potency and/or decreased adverse effects. The synergistic effect may be mediated in whole or in part by the pharmacokinetics and/or pharmacodynamics of the active ingredients in a subject, so that the amount and proportion of the ingredients in the formulation may be synergistic in vivo. This in vivo synergy may be effected with a formulation that includes the active ingredients in amounts and proportions that are also synergistic in in vitro assays of efficacy. As used herein, the term “synergistically effective amounts” accordingly refers to amounts that are synergistic in vivo and/or in vitro. A numeric quantification of synergy is often expressed as a fractional inhibitory concentration index (FICI), which represents the sum of the fractional inhibitory concentrations (FICs) of each drug tested, where the FIC is determined for each drug by dividing the minimum inhibitory concentration (MIC, the lowest concentration of the drug which prevents visible growth of the bacterium in a standard in vitro assay-standard colorometric assay based on resazurin) of each drug when used in combination by the MIC of each drug when used alone. In very general terms, a FICI lower or higher than 1 indicates positively correlated activity (at least additive or potentiation) or an absence of positive interactions, respectively. More definitively, synergy of two compounds may be conservatively defined as a FICI of ::::0.5 (see Odds, 2003; with additivity or potentiation corresponding to a FICI of >0.5 to ::::0.75; no interaction (indifference) corresponding to a FICI of >1 to ::::4; and antagonism corresponding to a FICI of >>4). Synergy of three compounds has been defined as a FICI of ::::1.0. (Berenbaum, 1978; Yu et al., 1980). To estimate the optimal concentrations in triple combinations, the optimal concentrations of trans-caryophyllene and cannabinoid were utilized in combination with a series of daptomycin dilutions.
Pre-cultures of bacteria growing in their corresponding liquid media (defined below) were diluted to an 00600 of 0.0025 and 100 μl was added to 100 μl of medium containing serial 2-fold dilutions of cannabinoid (cannabinoid stocks, in methanol or acetonitrile for acidic forms, were diluted in growth medium) in 96-well plates. Plates were then incubated for 20-24 h at 37° C., and growth was recorded as 00600 in a Thermo Scientific™ Varioskan™ Flash Multimode Reader.
Method for Tables 4-7. Interaction of Cannabinoids CBC, CBD and CBG with Terpenes and Daptomycin:
FICI values was determined in a 96 well checkerboard format using the MIC assay for cannabinoids (compound A), terpenes (compound B), and daptomycin (compound C) alone and in combinations. Terpene stocks were prepared in DMSO and diluted in the growth medium. The fractional inhibitory concentration for each compound was calculated as follows: FICA=(MIC of compound A in the presence of compound B)/(MIC of compound A alone). Similarly, the FICs for compounds Band C were calculated. The FICI was calculated as FICA plus FICs plus FICc.

[3] = test system: Enterococcus faecalis; experiment: MIC determination; assay type: cell-based
[4] = test system: Enterococcus faecium 33D3; experiment: microbe, parasite or virus in culture
[5] = test system: Mycobacterium abscessus ATCC 19977; experiment: MIC determination (resazurin); assay type: cell-based; conditions: Mycobacteroides abscessus, ATCC19977
[6] = test system: Enterococcus faecium 33D3; conditions: E. faecium isolate 3303
[7] = test system: E. faecium clinical isolate 69C6 (vancomycin resistant); conditions: E. faecium isolate 69C6
[8] = test system: E. faecium clinical isolate 69C6 (vancomycin resistant); experiment: microbe, parasite or virus in culture; conditions: Enterococcus faecium
[9] = test system: Staphylococcus aureus MRSA; experiment: microbe, parasite or virus in culture; assay type: cell-based
[10] = test system: Streptococcus pyogenes ATCC 51878; experiment: MIC determination; assay type: cell-based; conditions: Streptococcus pyogenes, ATCC51878
[11] = test system: Mycobacterium tuberculosis H37Rv; experiment: MIC determination (PrestoBlue); assay type: cell-based; conditions: Mycobacterium tuberculosis, H37RV
[12] = test system: Staphylococcus epidermidis ATCC 12228; experiment: MIC determination; assay type: cell-based; conditions: Staphylococcus epidermidis, ATCC12228
[13] = test system: E. faecium clinical isolate 58C9 (vancomycin and daptomycin resistant); experiment: microbe, parasite or virus in culture; conditions: Enterococcus faecium
[14] = test system: E. faecium clinical isolate 55A6 (vancomycin and daptomycin resistant); experiment: microbe, parasite or virus in culture; conditions: Enterococcus faecium
[15] = test system: Staphylococcus epidermidis ATCC 14990; experiment: MIC determination; assay type: cell-based; conditions: Staphylococcus epidermidis, ATCC14990
[16] = test system: E. faecium strains 3303, 69C6, 58C9 and 55A6; experiment: Kill curves (CFU by serial dilution); assay type: cell-based, Enterococcus faecium
[17] = pairwise, with trans-caryophyllene
[18] = triple, with daptomycin and trans-caryophyllene

CCCCCc1cc(O)c(C/C=C(\C)CCC=C(C)C)c(O)c1 [CBG, cannabigerol]
Fold reduction in daptomycin MIC in combination with the cannabinoid [1]: 4 Fold
MIC In combination ([2]; pairwise, with daptomycin): 0.125 mg/L
Max. fold change in MIC ([2]; pairwise, with daptomycin): 32″′ fold
MIC In combination [2, 17]: 0.125 mg/L
Max. fold change in MIC [2, 17]: 16″′ fold
MIC In combination [2, 18]: 0.25 mg/L
Max. fold change in MIC [2, 18]: 4 fold
MIC [3]: 1 mg/L (≈ 3.16 µM)
MIC ([4]; 33D3, Enterococcus faecium 33D3 (Table 1)): 1 to 2 mg/L (≈ 3.16 to 6.32 µM)
MIC ([4]; 33D3, clinical enterococcal strain 3303): 1 mg/L (≈ 3.16 µM)
MIC [5]: 2 mg/L (≈ 6.32 µM)
Fold reduction in daptomycin MIC in combination with the cannabinoid [6]: 32 Fold
Fold reduction in daptomycin MIC in combination with the cannabinoid [7]: 4 Fold
MIC [8]: 1 mg/L (≈ 3.16 µM)
MIC [9]: 1 mg/L (≈ 3.16 µM)
MIC [10]: 1 mg/L (≈ 3.16 µM)
MIC ([11]; Media 7H9, read-out: MIC): 2 mg/L (≈ 6.32 µM)
MIC ([11]; Media PB, read-out: MIC): 2 mg/L (≈ 6.32 µM)
MIC [12]: 2 mg/L (≈ 6.32 µM)
MIC [13]: 1 mg/L (≈ 3.16 µM)
MIC [14]: 1 mg/L (≈ 3.16 µM)
MIC [15]: 1 to 2 mg/L (≈ 3.16 to 6.32 µM)
kinetics of E. faecium killing ([16]; at equal concentrations of CBD, CBG, or CBC, FIG. 1): faster than for CBO
bactericidal activity (viability, CFU) ([16]; cannabinoid alone, 1x-4x MIC, planktonic E. faecium, FIG. 1): bactericidal
growth and CFU in combination with daptomycin ([16]; ½×MIC of cannabinoid with 1×-⅛×MIC of daptomycin, strains 3303, 58C9, 55A6): significantly inhibited growth of all strains and reduced CFU
